13 molecules from publication PMC7144234, “Antiproliferative chromone derivatives induce K562 cell death through endogenous and exogenous pathways” (Journal of Enzyme Inhibition and Medicinal Chemistry, 2020) can be followed below.

The subject of experiment [1] is HepG2. The experiment is described as follows: MTT antiproliferative assay, HepG2. Format: cell-based, human. To be noted: 72 h, hepatoma HepG2. The protocol:
(§1) The colorimetric MTT (3-(4,5-dimethylthiazol-2-yl)-2,5-diphenyltetrazolium bromide) assay was used to measure the cell viability of all of the above cell lines following treatment with target hybrids. Exponentially growing cells were added into 96-well plates at a concentration of 2000–4000 cells per well. Following attachment the cells were treated with varying concentrations (64, 16, 4, 1, 0.25, 0.0625 and 0.015625 µM) of target compounds in media and were kept for incubation for 72 h. MTT (20 µL, 5 mg/mL in PBS) was added to each well and the cells were incubated for another 3 h at 37 °C. Then the medium was removed, followed by the addition of 150 µL DMSO for each well. After that, the absorbance (OD) data of each well at 570 nm wavelength were measured by a Microplate Reader (BIO-RAD), and half inhibition rates (IC50) were calculated[59]^,[60].
(In general: Tetrazolium dyes change colour on reduction, which living cells bring about.)

The test system of experiment [2] is MCF-7. The experiment is described as follows: MTT antiproliferative assay, MCF-7. Format: cell-based, human. To be noted: breast carcinoma MCF-7. The protocol:
as §1

The test system of experiment [3] is HCT-116. The experiment in a line: MTT antiproliferative assay, HCT-116. Format: cell-based, human. To be noted: 72 h, colorectal carcinoma HCT-116. On the procedure:
as §1

For experiment [4], the system named is B16. The experiment in a line: MTT antiproliferative assay, B16. To be noted: 72 h, melanoma B16. Format: cell-based. On the procedure:
as §1

In experiment [5] the test system is K562. The experiment is described as follows: MTT antiproliferative assay, K562. Format: cell-based, human. To be noted: 72 h, chronic myeloid leukaemia K562. On the procedure: as §1
The test system of experiment [6] is L-02. The experiment is described as follows: MTT assay, normal hepatic L-02 cell line. Format: cell-based. To be noted: human normal hepatic L-02 cell line. The protocol:
as §1

Experiment [7] concerns PBMC. The experiment is described as follows: MTT assay, peripheral blood mononuclear cells. To be noted: 72 h. Format: cell-based, human. On the procedure: as §1

The term IC50 denotes the concentration at which inhibition is half-maximal. With “4-((1-((3-Carboxy-6-methyl-4-oxo-4H-chromen-2-yl)amino)propan-2-yl)oxy)-3-(phenylsulfonyl)-1,2,5-oxadiazole 2-oxide [14b]”, the IC50 in experiment [1], in experiment [2] (72 h), in experiment [3], in experiment [4], in experiment [5] and in experiment [6] (72 h) was above 50 µM each time. Also, the IC50 in experiment [7] was above 50 µM.
Consider `O=c1[nH]cc(F)c(=O)[nH]1` [5-Fu, fluorouracil, reference compound], for which the IC50 was 32.6 ± 1.98 µM in experiment [1] (Homo sapiens); 26.7 ± 1.92 µM in experiment [2] (Homo sapiens, MCF7, 72 h); 6.86 ± 0.37 µM in experiment [3] (Homo sapiens); 12.6 ± 1.06 µM in experiment [4]; 3.94 ± 0.17 µM in experiment [5] (Homo sapiens); above 50 µM in experiment [6] (L02, 72 h). Further, the IC50 in experiment [7] (Homo sapiens, PBMC) was above 50 µM.
Turning to `NCCOc1no[n+]([O-])c1S(=O)(=O)c1ccccc1` [5a, 4-(2-aminoethoxy)-3-(phenylsulfonyl)-1,2,5-oxadiazole-2-oxide], the IC50 in experiment [1] (Homo sapiens) is 21.8 ± 1.35 µM; in experiment [2] (Homo sapiens, MCF7, 72 h), above 50 µM; in experiment [3] (Homo sapiens) it was 29.9 ± 1.47 µM; in experiment [4], 27.9 ± 1.23 µM; in experiment [5] (Homo sapiens), 18.9 ± 0.73 µM; in experiment [6] (L02, 72 h), above 50 µM. For the same molecule, the IC50 in experiment [7] (Homo sapiens, PBMC) was above 50 µM.
Take `NCCCOc1no[n+]([O-])c1S(=O)(=O)c1ccccc1` [5b, 4-(3-aminopropoxy)-3-(phenylsulfonyl)-1,2,5-oxadiazole-2-oxide]: the IC50 was 17.8 ± 1.43 µM in experiment [1] (Homo sapiens); above 50 µM in experiment [2] (Homo sapiens, MCF7, 72 h); 18.9 ± 1.67 µM in experiment [3] (Homo sapiens); 22.9 ± 1.46 µM in experiment [4]; 20.3 ± 1.88 µM in experiment [5] (Homo sapiens); above 50 µM in experiment [6] (L02, 72 h). For the same molecule, the half-maximal inhibitory concentration (IC50) in experiment [7] (Homo sapiens, PBMC) was above 50 µM.
Regarding `CC(CN)Oc1no[n+]([O-])c1S(=O)(=O)c1ccccc1` (stereo not shown) [5c, 4-((1-aminopropan-2-yl)oxy)-3-(phenylsulfonyl)-1,2,5-oxadiazole-2-oxide], the IC50 in experiment [1] (Homo sapiens) was above 50 µM; in experiment [2] (Homo sapiens, MCF7, 72 h) it was above 50 µM; in experiment [3] (Homo sapiens) it was above 50 µM; in experiment [4], above 50 µM; in experiment [5] (Homo sapiens), above 50 µM; in experiment [6] (L02, 72 h), above 50 µM. Besides, in experiment [7] (Homo sapiens, PBMC), the IC50 was above 50 µM.
For the molecule `O=S(=O)(c1ccccc1)c1c(OCCN2CCNCC2)no[n+]1[O-]` [5d, 3-(phenyl-sulfonyl)-4-(2-(piperazin-1-yl)ethoxy)-1,2,5-oxadiazole-2-oxide], the IC50 in experiment [1] (Homo sapiens) was above 50 µM; in experiment [2] (Homo sapiens, MCF7, 72 h) it was above 50 µM; in experiment [3] (Homo sapiens) it was above 50 µM; in experiment [4], above 50 µM; in experiment [5] (Homo sapiens), above 50 µM; in experiment [6] (L02, 72 h) it was above 50 µM. Further, the IC50 in experiment [7] (Homo sapiens, PBMC) is above 50 µM.
Turning to `Cc1ccc2occ(C(=O)NCCOc3no[n+]([O-])c3S(=O)(=O)c3ccccc3)c(=O)c2c1` [12a, (2-(6-Methyl-4-oxo-4H-chromene-3-carboxamido)ethoxy)-3-(phenylsulfonyl)-1,2,5-oxadiazole 2-oxide], the IC50 in experiment [1] (Homo sapiens) is above 50 µM; in experiment [2] (Homo sapiens, MCF7, 72 h) it was above 50 µM; in experiment [3] (Homo sapiens), above 50 µM; in experiment [4] it was above 50 µM; in experiment [5] (Homo sapiens) it was above 50 µM; in experiment [6] (L02, 72 h), above 50 µM. Further, the IC50 in experiment [7] (Homo sapiens, PBMC) was above 50 µM.
As for `COc1ccc2occ(C(=O)NCCCOc3no[n+]([O-])c3S(=O)(=O)c3ccccc3)c(=O)c2c1` [13c, 4-(3-(6-Methoxy-4-oxo-4H-chromene-3-carboxamido)propoxy)-3-(phenylsulfonyl)-1,2,5-oxadiazole 2-oxide], the IC50 in experiment [1] (Homo sapiens) was above 50 µM; in experiment [2] (Homo sapiens, MCF7, 72 h), above 50 µM; in experiment [3] (Homo sapiens), above 50 µM; in experiment [4] it was above 50 µM; in experiment [5] (Homo sapiens), above 50 µM; in experiment [6] (L02, 72 h), above 50 µM. The IC50 in experiment [7] (Homo sapiens, PBMC) was above 50 µM.
For the molecule `Cc1ccc2occ(C(=O)N3CCN(CCOc4no[n+]([O-])c4S(=O)(=O)c4ccccc4)CC3)c(=O)c2c1` [14c, 4-(2-(4-(6-Methyl-4-oxo-4H-chromene-3-carbonyl)piperazin-1-yl)ethoxy)-3-(phenylsulfonyl)-1,2,5-oxadiazole 2-oxide], the IC50 in experiment [1] (Homo sapiens) stood at 5.67 ± 0.42 µM; in experiment [2] (Homo sapiens, MCF7, 72 h) it was 12.8 ± 1.46 µM; in experiment [3] (Homo sapiens) it was 7.93 ± 0.44 µM; in experiment [4], 10.6 ± 0.53 µM; in experiment [5] (Homo sapiens) it was 2.98 ± 0.14 µM; in experiment [6] (L02, 72 h), 41.3 ± 2.58 µM. In experiment [7] (Homo sapiens, PBMC), this molecule returned an IC50 above 50 µM.
As for `COc1ccc2occ(C(=O)N3CCN(CCOc4no[n+]([O-])c4S(=O)(=O)c4ccccc4)CC3)c(=O)c2c1` [15c, 4-(2-(4-(6-Methoxy-4-oxo-4H-chromene-3-carbonyl)piperazin-1-yl)ethoxy)-3-(phenylsulfonyl)-1,2,5-oxadiazole 2-oxide], the IC50 in experiment [1] (Homo sapiens) is 25.6 ± 1.57 µM; in experiment [2] (Homo sapiens, MCF7, 72 h), 37.6 ± 2.24 µM; in experiment [3] (Homo sapiens) it was 22.4 ± 1.72 µM; in experiment [4], 23.5 ± 1.61 µM; in experiment [5] (Homo sapiens) it was 8.93 ± 0.36 µM; in experiment [6] (L02, 72 h), above 50 µM. Besides, the IC50 in experiment [7] (Homo sapiens, PBMC) is above 50 µM.
For `COc1ccc2oc(N3CCN(CCOc4no[n+]([O-])c4S(=O)(=O)c4ccccc4)CC3)c(C(=O)O)c(=O)c2c1` [15d, 4-(2-(4-(3-Carboxy-6-methoxy-4-oxo-4H-chromen-2-yl)piperazin-1-yl)ethoxy)-3-(phenylsulfonyl)-1,2,5-oxadiazole 2-oxide], the IC50 in experiment [1] (Homo sapiens) is 9.56 ± 2.37 µM; in experiment [2] (Homo sapiens, MCF7, 72 h), 16.9 ± 1.29 µM; in experiment [3] (Homo sapiens) it was 12.9 ± 1.02 µM; in experiment [4], 35 ± 1.25 µM; in experiment [5] (Homo sapiens), 4.07 ± 0.39 µM; in experiment [6] (L02, 72 h) it was above 50 µM. The same molecule gave an IC50 in experiment [7] (Homo sapiens, PBMC) above 50 µM.
As to `Cc1ccc2occ(C(=O)O)c(=O)c2c1` [compound 10], the IC50 in experiment [1] (Homo sapiens) was above 50 µM; in experiment [2] (Homo sapiens, MCF7, 72 h) it was above 50 µM; in experiment [3] (Homo sapiens), above 50 µM; in experiment [4], above 50 µM; in experiment [5] (Homo sapiens), above 50 µM; in experiment [6] (L02, 72 h) it was above 50 µM. Besides, the IC50 in experiment [7] (Homo sapiens, PBMC) was above 50 µM.
In the case of `COc1ccc2occ(C(=O)O)c(=O)c2c1` [compound 11], the IC50 was above 50 µM in experiment [1] (Homo sapiens); above 50 µM in experiment [2] (Homo sapiens, MCF7, 72 h); above 50 µM in experiment [3] (Homo sapiens); above 50 µM in experiment [4]; above 50 µM in experiment [5] (Homo sapiens); above 50 µM in experiment [6] (L02, 72 h). In experiment [7] (Homo sapiens, PBMC), this molecule gave a concentration for half-maximal inhibition (IC50) above 50 µM.
